Results from the NIST ThermoML archive (doi:10.1021/je300252d).
Numbers after ± are expanded uncertainties.

Assay: mn = molality of the nth substance listed, in mol/kg
Settings: 100 kPa, Liquid, Direct current cell with electrodes

SMILES: CCCC[N+](CCCC)(CCCC)CCCC.[Br-] [tetrabutylammonium bromide] + CN(C)C=O
- molar conductivity (283.15 K, m1 = 9.197e-05): 0.006236 ± 9.7e-06 S·m2/mol
- molar conductivity (283.15 K, m1 = 0.0002922): 0.006141 ± 8.1e-06 S·m2/mol
- molar conductivity (283.15 K, m1 = 0.0004908): 0.006078 ± 6.1e-06 S·m2/mol
- molar conductivity (283.15 K, m1 = 0.0006894): 0.0060258 ± 4.7e-06 S·m2/mol
- molar conductivity (283.15 K, m1 = 0.001222): 0.0059158 ± 4e-06 S·m2/mol
- molar conductivity (283.15 K, m1 = 0.00199): 0.0057906 ± 3.3e-06 S·m2/mol
- molar conductivity (283.15 K, m1 = 0.002938): 0.0056698 ± 2.9e-06 S·m2/mol
- molar conductivity (283.15 K, m1 = 0.003964): 0.0055611 ± 2.4e-06 S·m2/mol
- molar conductivity (283.15 K, m1 = 0.005897): 0.005399 ± 2.2e-06 S·m2/mol
- molar conductivity (283.15 K, m1 = 0.007916): 0.0052571 ± 2e-06 S·m2/mol
- molar conductivity (283.15 K, m1 = 0.009885): 0.0051385 ± 1.9e-06 S·m2/mol
- molar conductivity (283.15 K, m1 = 0.01187): 0.0050378 ± 1.8e-06 S·m2/mol
- molar conductivity (288.15 K, m1 = 0.0002384): 0.006641 ± 1e-05 S·m2/mol
- molar conductivity (288.15 K, m1 = 0.0003637): 0.006588 ± 7.4e-06 S·m2/mol
- molar conductivity (288.15 K, m1 = 0.0005543): 0.0065255 ± 6.3e-06 S·m2/mol
- molar conductivity (288.15 K, m1 = 0.0007699): 0.0064657 ± 5e-06 S·m2/mol
- molar conductivity (288.15 K, m1 = 0.001232): 0.0063637 ± 4.2e-06 S·m2/mol
- molar conductivity (288.15 K, m1 = 0.00201): 0.0062266 ± 3.5e-06 S·m2/mol
- molar conductivity (288.15 K, m1 = 0.002974): 0.0060937 ± 3.1e-06 S·m2/mol
- molar conductivity (288.15 K, m1 = 0.003946): 0.005981 ± 2.6e-06 S·m2/mol
- molar conductivity (288.15 K, m1 = 0.005906): 0.0058005 ± 2.3e-06 S·m2/mol
- molar conductivity (288.15 K, m1 = 0.007894): 0.0056496 ± 2.1e-06 S·m2/mol
- molar conductivity (288.15 K, m1 = 0.009876): 0.0055214 ± 2e-06 S·m2/mol
- molar conductivity (288.15 K, m1 = 0.01183): 0.0054109 ± 1.9e-06 S·m2/mol
- molar conductivity (293.15 K, m1 = 0.000124): 0.007196 ± 1.2e-05 S·m2/mol
- molar conductivity (293.15 K, m1 = 0.000358): 0.007067 ± 9.5e-06 S·m2/mol
- molar conductivity (293.15 K, m1 = 0.0005617): 0.006993 ± 7e-06 S·m2/mol
- molar conductivity (293.15 K, m1 = 0.0007496): 0.0069356 ± 5.5e-06 S·m2/mol
- molar conductivity (293.15 K, m1 = 0.001203): 0.006825 ± 4.6e-06 S·m2/mol
- molar conductivity (293.15 K, m1 = 0.001974): 0.0066764 ± 3.8e-06 S·m2/mol
- molar conductivity (293.15 K, m1 = 0.002962): 0.006528 ± 3.3e-06 S·m2/mol
- molar conductivity (293.15 K, m1 = 0.003941): 0.0064046 ± 2.7e-06 S·m2/mol
- molar conductivity (293.15 K, m1 = 0.005913): 0.0062071 ± 2.4e-06 S·m2/mol
- molar conductivity (293.15 K, m1 = 0.007899): 0.0060446 ± 2.2e-06 S·m2/mol
- molar conductivity (293.15 K, m1 = 0.009903): 0.0059059 ± 2e-06 S·m2/mol
- molar conductivity (293.15 K, m1 = 0.01185): 0.0057855 ± 1.9e-06 S·m2/mol
- molar conductivity (298.15 K, m1 = 8.12e-05): 0.00773 ± 1.3e-05 S·m2/mol
- molar conductivity (298.15 K, m1 = 0.0003247): 0.007565 ± 1.2e-05 S·m2/mol
- molar conductivity (298.15 K, m1 = 0.0005335): 0.007478 ± 7.7e-06 S·m2/mol
- molar conductivity (298.15 K, m1 = 0.000754): 0.0074043 ± 6e-06 S·m2/mol
- molar conductivity (298.15 K, m1 = 0.001188): 0.0072894 ± 4.9e-06 S·m2/mol
- molar conductivity (298.15 K, m1 = 0.001985): 0.0071236 ± 4e-06 S·m2/mol
- molar conductivity (298.15 K, m1 = 0.002972): 0.0069641 ± 3.4e-06 S·m2/mol
- molar conductivity (298.15 K, m1 = 0.003989): 0.0068266 ± 2.9e-06 S·m2/mol
- molar conductivity (298.15 K, m1 = 0.005892): 0.0066212 ± 2.6e-06 S·m2/mol
- molar conductivity (298.15 K, m1 = 0.007909): 0.0064436 ± 2.3e-06 S·m2/mol
- molar conductivity (298.15 K, m1 = 0.009849): 0.0062996 ± 2.1e-06 S·m2/mol
- molar conductivity (298.15 K, m1 = 0.0119): 0.0061631 ± 2e-06 S·m2/mol
- molar conductivity (303.15 K, m1 = 0.0001279): 0.008182 ± 1.3e-05 S·m2/mol
- molar conductivity (303.15 K, m1 = 0.0003737): 0.008028 ± 1.2e-05 S·m2/mol
- molar conductivity (303.15 K, m1 = 0.0004937): 0.007975 ± 8.1e-06 S·m2/mol
- molar conductivity (303.15 K, m1 = 0.0007203): 0.0078909 ± 6.5e-06 S·m2/mol
- molar conductivity (303.15 K, m1 = 0.00121): 0.0077502 ± 5.2e-06 S·m2/mol
- molar conductivity (303.15 K, m1 = 0.002013): 0.0075724 ± 4.3e-06 S·m2/mol
- molar conductivity (303.15 K, m1 = 0.002974): 0.0074063 ± 3.6e-06 S·m2/mol
- molar conductivity (303.15 K, m1 = 0.003957): 0.0072634 ± 3e-06 S·m2/mol
- molar conductivity (303.15 K, m1 = 0.005917): 0.0070358 ± 2.7e-06 S·m2/mol
- molar conductivity (303.15 K, m1 = 0.00787): 0.0068512 ± 2.4e-06 S·m2/mol
- molar conductivity (303.15 K, m1 = 0.009823): 0.0066956 ± 2.2e-06 S·m2/mol
- molar conductivity (303.15 K, m1 = 0.01184): 0.0065521 ± 2.1e-06 S·m2/mol
- molar conductivity (308.15 K, m1 = 0.0001375): 0.008672 ± 1.5e-05 S·m2/mol
- molar conductivity (308.15 K, m1 = 0.0003374): 0.008537 ± 1.1e-05 S·m2/mol
- molar conductivity (308.15 K, m1 = 0.0005902): 0.008422 ± 8.9e-06 S·m2/mol
- molar conductivity (308.15 K, m1 = 0.0007253): 0.0083707 ± 6.6e-06 S·m2/mol
- molar conductivity (308.15 K, m1 = 0.001221): 0.0082189 ± 5.5e-06 S·m2/mol
- molar conductivity (308.15 K, m1 = 0.002004): 0.0080331 ± 4.5e-06 S·m2/mol
- molar conductivity (308.15 K, m1 = 0.002993): 0.0078504 ± 3.8e-06 S·m2/mol
- molar conductivity (308.15 K, m1 = 0.003956): 0.0077012 ± 3.2e-06 S·m2/mol
- molar conductivity (308.15 K, m1 = 0.005922): 0.0074573 ± 2.8e-06 S·m2/mol
- molar conductivity (308.15 K, m1 = 0.007903): 0.0072572 ± 2.5e-06 S·m2/mol
- molar conductivity (308.15 K, m1 = 0.009896): 0.007088 ± 2.3e-06 S·m2/mol
- molar conductivity (308.15 K, m1 = 0.01189): 0.0069381 ± 2.2e-06 S·m2/mol
- molar conductivity (313.15 K, m1 = 6.835e-05): 0.009246 ± 1.6e-05 S·m2/mol
- molar conductivity (313.15 K, m1 = 0.0003232): 0.009042 ± 1.3e-05 S·m2/mol
- molar conductivity (313.15 K, m1 = 0.0005979): 0.008909 ± 9.5e-06 S·m2/mol
- molar conductivity (313.15 K, m1 = 0.0007057): 0.0088651 ± 8e-06 S·m2/mol
- molar conductivity (313.15 K, m1 = 0.001228): 0.0086936 ± 5.9e-06 S·m2/mol
- molar conductivity (313.15 K, m1 = 0.002045): 0.0084879 ± 4.8e-06 S·m2/mol
- molar conductivity (313.15 K, m1 = 0.002992): 0.0083023 ± 4e-06 S·m2/mol
- molar conductivity (313.15 K, m1 = 0.003971): 0.0081415 ± 3.3e-06 S·m2/mol
- molar conductivity (313.15 K, m1 = 0.00585): 0.0078927 ± 3e-06 S·m2/mol
- molar conductivity (313.15 K, m1 = 0.00787): 0.0076738 ± 2.6e-06 S·m2/mol
- molar conductivity (313.15 K, m1 = 0.009873): 0.0074917 ± 2.3e-06 S·m2/mol
- molar conductivity (313.15 K, m1 = 0.01189): 0.007332 ± 2.2e-06 S·m2/mol
- molar conductivity (318.15 K, m1 = 9.782e-05): 0.009714 ± 1.5e-05 S·m2/mol
- molar conductivity (318.15 K, m1 = 0.0003254): 0.009541 ± 1.3e-05 S·m2/mol
- molar conductivity (318.15 K, m1 = 0.0005324): 0.009434 ± 9.6e-06 S·m2/mol
- molar conductivity (318.15 K, m1 = 0.0007651): 0.0093342 ± 7.7e-06 S·m2/mol
- molar conductivity (318.15 K, m1 = 0.001206): 0.0091821 ± 6.2e-06 S·m2/mol
- molar conductivity (318.15 K, m1 = 0.001977): 0.0089725 ± 5.1e-06 S·m2/mol
- molar conductivity (318.15 K, m1 = 0.002989): 0.0087596 ± 4.3e-06 S·m2/mol
- molar conductivity (318.15 K, m1 = 0.003967): 0.0085894 ± 3.5e-06 S·m2/mol
- molar conductivity (318.15 K, m1 = 0.005938): 0.0083142 ± 3.1e-06 S·m2/mol
- molar conductivity (318.15 K, m1 = 0.007894): 0.0080896 ± 2.7e-06 S·m2/mol
- molar conductivity (318.15 K, m1 = 0.009905): 0.0078947 ± 2.5e-06 S·m2/mol
- molar conductivity (318.15 K, m1 = 0.01189): 0.0077299 ± 2.3e-06 S·m2/mol
